Laboratory results from patent US20260297081A1, “COMPOUNDS AND METHODS OF TREATING CANCERS” (Cullgen Inc., priority 2023, published 2026).

Tests used:
Format in all cases: cell-based
T47D cells = test: Anti-proliferation (viability) of ER+ breast cancer T47D cells, 6 days (Table 7, FIG. 2B); conditions: Homo sapiens, 144 h; T47D cells, 6 days, 10-point serial dilution; read-out: GI IC50 in T47D
Method: To evaluate anti-proliferation activities of heterobifunctional compounds, NSCLC Calu-1 or ER+ breast cancer T47D cells were treated with selected heterobifunctional compounds following a 10-point serial dilution for 3 or 6 days, respectively.
To verify that heterobifunctional compound-mediated degradation is dependent on the binding to CDK4-cyclin D complex, a negative control compound, CPD-143, which is derived from active heterobifunctional compound CPD-10 was designed. CPD-143 bears the same DDB1 ligand and linker as CPD-10 but with a modified warhead to impair the binding of the control compound to CDK4.

Calu-1 cells = test: Anti-proliferation (viability) of NSCLC Calu-1 cells, 3 days (Table 7, FIG. 2B); conditions: Homo sapiens, 72 h; Calu-1 cells, 3 days, 10-point serial dilution; read-out: GI IC50 in Calu-1
In short: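 Cells were exposed to heterobifunctional compounds across a 10-point serial dilution, for 3 days with Calu-1 and 6 days with T47D. A negative control was included that keeps the DDB1 ligand and linker but carries a modified warhead that impairs CDK4 binding.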

MCF7 cells = test: Anti-proliferation (viability) of MCF7 cells (Table 7, FIG. 2B); conditions: Homo sapiens, MCF7, MCF7 cells, 3-6 days, 10-point serial dilution; read-out: GI IC50 in MCF-7
CDK4 = CDK4 (Homo sapiens, UniProt P11802+Q16531); test: CDK4 percentage degradation in Calu-1 cells (Table 6); set-up: Cells that express cyclin D1-3 and CDK4/6 proteins were treated with heterobifunctional compounds; endogenous in cells; host or cells: Calu-1; conditions: 16 hours; for inhibition at 0.04 µM: 40 nM; for inhibition at 0.2 µM: 200 nM
In short: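 Percentage degradation of Cyclin D1 and CDK4 derived from densitometry of ECL Western blots on lysates of Calu-1 cells. Treatment was 16 h with compound at either 40 nM or 200 nM.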

Sequence of CDK4 (P11802 2-303 limits assumed): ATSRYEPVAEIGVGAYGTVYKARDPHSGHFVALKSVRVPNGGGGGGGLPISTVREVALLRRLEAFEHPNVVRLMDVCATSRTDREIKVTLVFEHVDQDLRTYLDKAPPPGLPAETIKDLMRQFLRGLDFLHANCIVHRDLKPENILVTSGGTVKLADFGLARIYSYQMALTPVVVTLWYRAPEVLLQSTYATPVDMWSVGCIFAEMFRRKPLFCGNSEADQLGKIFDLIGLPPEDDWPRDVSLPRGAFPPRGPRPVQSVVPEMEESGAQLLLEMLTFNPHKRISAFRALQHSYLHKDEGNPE
Sequence of CDK4 (P24385 whole entry partner): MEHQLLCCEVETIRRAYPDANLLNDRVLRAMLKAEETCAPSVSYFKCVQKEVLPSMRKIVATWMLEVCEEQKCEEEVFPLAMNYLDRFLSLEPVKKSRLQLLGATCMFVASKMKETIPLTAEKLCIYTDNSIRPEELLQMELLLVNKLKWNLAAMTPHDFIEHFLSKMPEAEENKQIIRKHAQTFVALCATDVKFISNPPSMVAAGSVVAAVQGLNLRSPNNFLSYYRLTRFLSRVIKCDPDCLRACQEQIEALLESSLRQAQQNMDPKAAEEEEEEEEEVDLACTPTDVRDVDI
Sequence of CDK4 (Q16531 2-1140 limits assumed): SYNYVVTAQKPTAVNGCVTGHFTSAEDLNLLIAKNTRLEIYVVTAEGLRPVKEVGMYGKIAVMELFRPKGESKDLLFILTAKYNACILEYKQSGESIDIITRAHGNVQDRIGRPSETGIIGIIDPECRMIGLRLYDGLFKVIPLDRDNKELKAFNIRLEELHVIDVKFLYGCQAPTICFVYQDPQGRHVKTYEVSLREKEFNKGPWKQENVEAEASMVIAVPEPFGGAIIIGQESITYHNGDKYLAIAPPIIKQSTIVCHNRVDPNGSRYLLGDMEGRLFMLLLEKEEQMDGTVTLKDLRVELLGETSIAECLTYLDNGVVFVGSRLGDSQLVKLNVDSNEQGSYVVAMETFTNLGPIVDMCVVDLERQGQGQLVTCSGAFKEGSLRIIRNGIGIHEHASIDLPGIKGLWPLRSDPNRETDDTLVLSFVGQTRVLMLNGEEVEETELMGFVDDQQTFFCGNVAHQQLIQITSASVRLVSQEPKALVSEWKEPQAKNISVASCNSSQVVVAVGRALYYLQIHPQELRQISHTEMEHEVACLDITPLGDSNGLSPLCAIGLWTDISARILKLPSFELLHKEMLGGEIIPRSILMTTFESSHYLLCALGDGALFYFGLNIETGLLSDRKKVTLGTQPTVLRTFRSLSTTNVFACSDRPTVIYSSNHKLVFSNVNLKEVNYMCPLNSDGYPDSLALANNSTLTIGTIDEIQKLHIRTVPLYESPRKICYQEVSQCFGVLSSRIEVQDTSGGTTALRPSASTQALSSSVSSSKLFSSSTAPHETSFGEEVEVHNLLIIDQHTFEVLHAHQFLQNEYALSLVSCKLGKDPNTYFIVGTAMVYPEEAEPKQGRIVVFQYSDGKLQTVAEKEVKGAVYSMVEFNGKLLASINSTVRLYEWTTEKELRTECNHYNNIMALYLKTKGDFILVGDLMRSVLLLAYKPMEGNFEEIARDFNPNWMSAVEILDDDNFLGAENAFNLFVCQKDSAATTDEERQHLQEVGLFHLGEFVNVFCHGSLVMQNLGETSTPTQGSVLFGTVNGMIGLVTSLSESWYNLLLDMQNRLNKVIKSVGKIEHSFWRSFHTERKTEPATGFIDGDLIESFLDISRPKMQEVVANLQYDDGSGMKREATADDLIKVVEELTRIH

Row | IC50 (T47D cells) [nM] | IC50 (Calu-1 cells) [nM] | IC50 (MCF7 cells) [nM] | inhibition at 0.04 µM (CDK4) [%] | inhibition at 0.2 µM (CDK4) [%] | SMILES
1 | ≤ 50 | ≤ 10 | < 50 | 50 to 80 |  | CNc1ccc(C(=O)Nc2ccc(N(C)C)nn2)c(NCCCCCNC(=O)CN2CCN(c3ccc(Nc4ncc5c(C)c(C(C)=O)c(=O)n(C6CCCC6)c5n4)nc3)CC2)n1 [CPD-5, 2-((5-(2-(4-(6-((6-acetyl-8-cyclopentyl-5-methyl-7-oxo-7,8-dihydropyrido[2,3-d]pyrimidin-2-yl)amino)pyridin-3-yl)piperazin-1-yl)acetamido)pentyl)amino)-N-(6-(dimethylamino)pyridazin-3-yl)-6-(methylamino)nicotinamide]
2 | ≤ 50 | ≤ 10 | < 50 | 50 to 80 | > 80 | CC(=O)c1c(C)c2cnc(Nc3ccc(N4CCN(CC(=O)NCCCCCCCNc5nc(C)ccc5C(=O)Nc5ccc(N(C)C)nn5)CC4)cn3)nc2n(C2CCCC2)c1=O [CPD-8, 2-((7-(2-(4-(6-((6-acetyl-8-cyclopentyl-5-methyl-7-oxo-7,8-dihydropyrido[2,3-d]pyrimidin-2-yl)amino)pyridin-3-yl)piperazin-1-yl)acetamido)heptyl)amino)-N-(6-(dimethylamino)pyridazin-3-yl)-6-methylnicotinamide]
3 | 50 to 100 | 10 to 50 | < 50 | 50 to 80 | > 80 | CNc1ccc(C(=O)Nc2ccc(OC)nn2)c(NCCCCCCCNC(=O)CN2CCN(c3ccc(Nc4ncc5c(C)c(C(C)=O)c(=O)n(C6CCCC6)c5n4)nc3)CC2)n1 [CPD-11, 2-((7-(2-(4-(6-((6-Acetyl-8-cyclopentyl-5-methyl-7-oxo-7,8-dihydropyrido[2,3-d]pyrimidin-2-yl)amino)pyridin-3-yl)piperazin-1-yl)acetamido)heptyl)amino)-N-(6-methoxypyridazin-3-yl)-6-(methylamino)nicotinamide]
4 | 50 to 100 | ≤ 10 | < 50 | 50 to 80 | 50 to 80 | CNc1ccc(C(=O)Nc2ccc(N(C)C)nn2)c(NCCCCCNC(=O)C(C)N2CCN(c3ccc(Nc4ncc5c(C)c(C(C)=O)c(=O)n(C6CCCC6)c5n4)nc3)CC2)n1 (centres unmarked) [CPD-14, 2-((5-(2-(4-(6-((6-Acetyl-8-cyclopentyl-5-methyl-7-oxo-7,8-dihydropyrido[2,3-d]pyrimidin-2-yl)amino)pyridin-3-yl)piperazin-1-yl)propanamido)pentyl)amino)-N-(6-(dimethylamino)pyridazin-3-yl)-6-(methylamino)nicotinamide]
5 | ≥ 100 | 10 to 50 |  | 50 to 80 | 50 to 80 | CNc1ccc(C(=O)Nc2ccc(N(C)C)nn2)c(NCCCCNC(=O)CCN2CCN(c3ccc(Nc4ncc5c(C)c(C(C)=O)c(=O)n(C6CCCC6)c5n4)nc3)CC2)n1 [CPD-37, 2-((4-(3-(4-(6-((6-acetyl-8-cyclopentyl-5-methyl-7-oxo-7,8-dihydropyrido[2,3-d]pyrimidin-2-yl)amino)pyridin-3-yl)piperazin-1-yl)propanamido)butyl)amino)-N-(6-(dimethylamino)pyridazin-3-yl)-6-(methylamino)nicotinamide]
6 | 50 to 100 | 10 to 50 |  | 30 to 50 | > 80 | CNc1ccc(C(=O)Nc2ccc(C)c(C3CC3)n2)c(NC2CC3(CC(NC(=O)CN4CCN(c5ccc(Nc6ncc7c(C)c(C(C)=O)c(=O)n(C8CCCC8)c7n6)nc5)CC4)C3)C2)n1 (centres unmarked) [CPD-57, 2-((6-(2-(4-(6-((6-Acetyl-8-cyclopentyl-5-methyl-7-oxo-7,8-dihydropyrido[2,3-d]pyrimidin-2-yl)amino)pyridin-3-yl)piperazin-1-yl)acetamido)spiro[3.3]heptan-2-yl)amino)-N-(6-cyclopropyl-5-methylpyridin-2-yl)-6-(methylamino)nicotinamide]
7 | ≤ 50 | 10 to 50 |  | 30 to 50 | 50 to 80 | CNc1ccc(C(=O)Nc2cccc(C)n2)c(NC2CC3(CC(NC(=O)CN4CCN(c5ccc(Nc6ncc7c(C)c(C(C)=O)c(=O)n(C8CCCC8)c7n6)nc5)CC4)C3)C2)n1 (centres unmarked) [CPD-75, 2-((6-(2-(4-(6-((6-Acetyl-8-cyclopentyl-5-methyl-7-oxo-7,8-dihydropyrido[2,3-d]pyrimidin-2-yl)amino)pyridin-3-yl)piperazin-1-yl)acetamido)spiro[3.3]heptan-2-yl)amino)-6-(methylamino)-N-(6-methylpyridin-2-yl)nicotinamide]
8 | ≤ 50 | ≤ 10 |  | 50 to 80 | 50 to 80 | CNc1ccc(C(=O)Nc2ccc(N(C)C)nn2)c(NC2CC(CNC(=O)CCN3CCN(c4ccc(Nc5ncc6c(C)c(C(C)=O)c(=O)n(C7CCCC7)c6n5)nc4)CC3)C2)n1 (centres unmarked) [CPD-80, 2-((3-((3-(4-(6-((6-Acetyl-8-cyclopentyl-5-methyl-7-oxo-7,8-dihydropyrido[2,3-d]pyrimidin-2-yl)amino)pyridin-3-yl)piperazin-1-yl)propanamido)methyl)cyclobutyl)amino)-N-(6-(dimethylamino)pyridazin-3-yl)-6-(methylamino)nicotinamide]
9 | 50 to 100 | 10 to 50 |  | 30 to 50 | 30 to 50 | CNc1ccc(C(=O)Nc2ccc(N(C)C)nn2)c(NC2CC3(CC(CNC(=O)N4CCN(c5ccc(Nc6ncc7c(C)c(C(C)=O)c(=O)n(C8CCCC8)c7n6)nc5)CC4)C3)C2)n1 (centres unmarked) [CPD-81, 4-(6-((6-Acetyl-8-cyclopentyl-5-methyl-7-oxo-7,8-dihydropyrido[2,3-d]pyrimidin-2-yl)amino)pyridin-3-yl)-N-((6-((3-((6-(dimethylamino)pyridazin-3-yl)carbamoyl)-6-(methylamino)pyridin-2-yl)amino)spiro[3.3]heptan-2-yl)methyl)piperazine-1-carboxamide]
10 | 50 to 100 | ≤ 10 |  | < 30 | 50 to 80 | CC(=O)c1c(C)c2cnc(Nc3ccc(N4CCN(CC(=O)NCCCCCNc5nc(NC(C)(C)C)ccc5C(=O)Nc5ccc(N(C)C)nn5)CC4)cn3)nc2n(C2CCCC2)c1=O [CPD-85, 2-((5-(2-(4-(6-((6-Acetyl-8-cyclopentyl-5-methyl-7-oxo-7,8-dihydropyrido[2,3-d]pyrimidin-2-yl)amino)pyridin-3-yl)piperazin-1-yl)acetamido)pentyl)amino)-6-(tert-butylamino)-N-(6-(dimethylamino)pyridazin-3-yl)nicotinamide]
11 | ≤ 50 | ≤ 10 |  | 50 to 80 | 50 to 80 | CC(=O)c1c(C)c2cnc(Nc3ccc(N4CCN(CC(=O)NC5CC6(C5)CC(Nc5nc(NC(C)C)ccc5C(=O)Nc5cccc(C7CC7)n5)C6)CC4)cn3)nc2n(C2CCCC2)c1=O (centres unmarked) [CPD-139, 2-((6-(2-(4-(6-((6-Acetyl-8-cyclopentyl-5-methyl-7-oxo-7,8-dihydropyrido[2,3-d]pyrimidin-2-yl)amino)pyridin-3-yl)piperazin-1-yl)acetamido)spiro[3.3]heptan-2-yl)amino)-N-(6-cyclopropylpyridin-2-yl)-6-(isopropylamino)nicotinamide]
